Test results: PubChem BioAssay (NCI)
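A five-concentration, 48-hour dose response in 96-well plates underlies each endpoint, interpolated linearly between surrounding concentrations. TGI marks complete inhibition of growth.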

What was measured:
Test in all cases: NCI tumour cell line growth inhibition, 48 h
SN12C renal = test system: SN12C renal
LOX IMVI melanoma = test system: LOX IMVI melanoma
TK-10 renal = test system: TK-10 renal
MOLT-4 leukemia = test system: MOLT-4 leukemia
M14 melanoma = test system: M14 melanoma
HT29 colon = test system: HT29 colon
NCI-H226 lung = test system: NCI-H226 lung
786-0 renal = test system: 786-0 renal
NCI-H460 lung = test system: NCI-H460 lung
SF-268 CNS = test system: SF-268 CNS
SF-295 CNS = test system: SF-295 CNS
OVCAR-3 ovarian = test system: OVCAR-3 ovarian
SNB-19 CNS = test system: SNB-19 CNS
NCI-H23 lung = test system: NCI-H23 lung
HOP-62 NSCLC = test system: HOP-62 NSCLC
HOP-92 NSCLC = test system: HOP-92 NSCLC

Row | SMILES | TGI (SN12C renal) [µM] | TGI (LOX IMVI melanoma) [µM] | TGI (TK-10 renal) [µM] | TGI (MOLT-4 leukemia) [µM] | TGI (M14 melanoma) [µM] | TGI (HT29 colon) [µM] | TGI (NCI-H226 lung) [µM] | TGI (786-0 renal) [µM] | TGI (NCI-H460 lung) [µM] | TGI (SF-268 CNS) [µM] | TGI (SF-295 CNS) [µM] | TGI (OVCAR-3 ovarian) [µM] | TGI (SNB-19 CNS) [µM] | TGI (NCI-H23 lung) [µM] | TGI (HOP-62 NSCLC) [µM] | TGI (HOP-92 NSCLC) [µM]
1 | O=C(NN1C(=O)C(Cl)C1c1ccccc1Cl)c1ccccc1O (configuration not stated) | > 100 | > 100 | > 100 | > 100 | > 100 | > 100 | > 100 | > 100 | > 100 | > 100 | > 100 | > 100 | > 100 |  |  | 
2 | CCC(=O)N1C(=O)C(CC)(CC)C(=O)N1C(=O)CC | > 100 |  | > 100 | > 100 | > 100 | > 100 | > 100 | > 100 | > 100 | > 100 | > 100 | > 100 | > 100 | > 100 | > 100 | 
3 | CO[C@]12CC(=O)C3(C(C[C@H]4CC5CC[C@H]6C[C@@H](OC(C)=O)CC[C@]6(OC(C)=O)C5C[C@@]43C)C1)C1C[C@H]3[C@@H]4CC[C@H]5C[C@@H](OC(C)=O)CC[C@]5(OC(C)=O)[C@H]4CC[C@]3(C)C12 (some centres not stated) | > 100 | > 100 | > 100 | > 100 | > 100 | > 100 |  | > 100 | > 100 | > 100 | > 100 | > 100 | > 100 | > 100 | > 100 | > 100
4 | CC(=O)O[C@H]1C[C@](C)(O)[C@@]23CC([C@@H](OC(=O)C(C)(C)O)[C@@H](OC(C)=O)C2(COC(=O)c2ccccc2)[C@H]1OC(C)=O)C(C)(C)O3 (some centres not stated) | > 100 | > 100 | > 100 | > 100 | > 100 | > 100 |  | > 100 | > 100 | > 100 | > 100 | > 100 | > 100 | > 100 | > 100 | > 100
5 | N#CCc1nc2cc(C(F)(F)F)ccc2s1 | > 100 | 80.2 | > 100 | > 100 |  | > 100 | > 100 | > 100 |  | > 100 | > 100 | 75.8 |  | 94.8 | > 100 | 48.1
6 | OCC1OC(c2ccccc2)CC1O (configuration not stated) | > 100 | > 100 | > 100 | > 100 | > 100 | > 100 | > 100 | > 100 | > 100 |  | > 100 | > 100 | > 100 |  |  | 
7 | CC(C)C1=C(Cc2ccccc2)C(=O)O/C1=C\c1ccc(O)c(Cl)c1 | 30.7 | 32.3 | 31.8 | 28.1 | 31.3 | 32.8 | 30.6 | 30.5 | 31.1 | 30.4 | 29.5 | 28 | 33.7 | 25.8 | 31.7 | 
